# From patent US4956466A, “Thiazole derivatives and process for the preparation thereof” (Laboratorios Vinas, S. A., priority 1988, dated 1990)
# System: ethanol-induced ulcers
# Assay: Necrotising agent model: ethanol-induced ulcers
# Type: in vivo, rat
# Method: (B) Necrotising agent model:
# Using the necrotising agent model, ethanol in this case, described by Robert el al. (Gastroenterology, 77: 433, 1979), the activity of LV-200 was compared with that of Nt at equimolar dose levels and a control group which was administered vehicle.
# The table below gives the lesion indices (in ulcerated area in mm) of the three groups studied, as well as the percentage inhibition of the ulcers of the treated groups over the control group (mean values±standard error of the mean).
structure (smiles),measurement,setting,value
"CNC(=C[N+](=O)[O-])NCCSCc1csc(CN(C)C)n1 [Nt, N-methyl-N'-2-((2(dimethylaminomethyl)-4-thiazolyl)methylthio)ethyl-2-nitro-1,1-ethylenediamine]",inhibition of ulcers induced by absolute ethanol (in words),absolute ethanol,does not inhibit ulcers
same,% inhibition of the ulcers over the control group,"ethanol, equimolar doses of LV-200 (230 mg/kg) and Nt",0%
same,"lesion index (ulcerated area), mm lesions","ethanol, equimolar doses of LV-200 (230 mg/kg) and Nt, mean ± standard error of the mean, control 91.2 ± 17.7, LV-200 p < 0.01 vs control, p < 0.001 versus Nt (t test)",97.7 ± 11.8 mm
